# From US20030068385A1, “Accelerated action fatty acid (AAFA) promotes health of normal tissues and minimizes the toxic side effects of chemotherapy” (priority 2001, published 2003)
# Counter-ions that a name gives are not always drawn.
# Key:
# [1] = Fecal water content (Example 1); assay type: in vivo; settings: Swiss mice treated with CPT-11 60 mg/kg IV; compared with mice not treated with CPT-11; not significant by ANOVA
# Description: (§1) Mice were killed 24 hours after the last CPT-11 treatment. At necropsy, mice were weighed, anesthesized and blood was drawn via cardiac puncture. Peripheral blood was placed in an EDTA-containing tube and sent to Laboratory Animal Resources for complete blood counts. The liver, spleen, testes and kidneys were removed, weighed, then part of each organ was fixed in Omnifix® and a part was quick frozen in liquid nitrogen. The brain was removed and frozen in liquid nitrogen. The colon was resected, split open longitudinally and placed serosal side down on a card. Feces were removed from the colon, placed in a tared pan and weighed, then placed in a 100° C. vacuum oven for drying to constant weight. The colon and a section of duodenum were fixed in Omnifix®. The fixed colon and duodenum were oriented in cassettes then processed to paraffin blocks. Paraffin sections were cut 4 μm thick, histological slides of the colon and duodenum were prepared and stained with H & E or periodic acid-Schiff stain.
# The initial wet weight and final constant weight of the dried feces was used to calculate the % of water in the feces of each mouse as an assay of intestinal function. […] Thus, the treatment helped return the values closer to control (no CPT-11 treatment) group values.
# duodenum crypts = assay: Apoptotic figures in the duodenum (Example 1); assay type: in vivo; settings: Swiss mice, CPT-11 60 mg/kg IV; two way ANOVA
# Description: as §1
# The number of apoptotic cells found in 10 complete, midaxially sectioned duodenum crypts was counted as an indication of intestinal damage. […] Thus, the treatment helped return the values closer to control (no CPT-11 treatment) group values.
# [2] = Blood counts: WBC, RBC, hematocrit (Example 1); assay type: in vivo; settings: Swiss mice treated with CPT-11; AAFA prior to and during CPT-11
# Description: as §1
# [3] = test system: peripheral blood erythrocytes; assay: Micronuclei and polychromataphilic erythrocytes in peripheral blood; assay type: in vivo; settings: Swiss mice treated with CPT-11; compared with mice that did not receive CPT-11
# Description: After completion of blood counts, a thin smear of peripheral blood was made on a microscope slide, the smear was air-dried and was then stained for 5 minutes with 0.01 mg/ml acridine orange in phosphate buffered saline (pH 7.0). Micronuclei and polychomataphilic erythrocytes (PCE) were identified on the acridine orange stained smears of peripheral blood. Using fluorescent microscopy and a 100X oil objective, the mature erythrocytes, lacking either DNA or RNA are green, the RNA containing PCE are reddish and the DNA containing micronuclei are bright yellow. Fields containing a single layer of erythrocytes were identified. At least 8 standard fields (300, 400 or 500 cells) were identified on each slide and the number or micronuclei or PCEs were counted and recorded.
# [4] = Liver weight as percent of body weight (Example 1); assay type: in vivo; settings: Swiss mice treated with CPT-11; compared with mice not treated with CPT-11
# Description: as §1
# The weight of the liver was expressed as a percent of body weight. […] Thus, the treatment returned the values to control (no CPT-11 treatment) group values.
# [5] = cited from earlier work
# Coat quality (Example 1) = assay type: in vivo; settings: Swiss mice treated with CPT-11; compared with normal control group
# From the text: The group of mice that consumed the ‘normal’ diet containing 10% corn oil and 0% AAFA that were not treated with CPT-11 (normal control group) was compared to the groups of mice treated with CPT-11 that consumed each diet. […] Thus, the treatment helped return the animal grooming behavior closer to the normal untreated control group without CPT-11. This generally reflects that the animals were “feeling better”.
# [6] = Body weight gain during CPT-11 treatment on AAFA diets (Example 1); assay type: in vivo; settings: male Swiss mice; 0-3% AAFA diets; CPT-11 60 mg/kg IV once each four days for 2 weeks
# Description: 40 male Swiss mice, 6 weeks old, were obtained and earmarked for unique identification. Mice were housed 5/cage in Laboratory Animal Resources facilities. After 24 hours acclimation, mice were weighed and the food was changed to one of four defined diets. The AIN-76 based, 10% total fat diets contained: 0% AAFA+10% corn oil, 1% AAFA+9% corn oil, 2% AAFA+8% corn oil or 3% AAFA+7% corn oil. Two cages (10 mice) were designated to consume each diet. All mice were weighed three times weekly throughout the experiment.
# Mice consumed the diet for 2 weeks then treatment with CPT-11 commenced for half of the mice (1 cage of 5 mice) on each diet. CPT-11 was administered at 60 mg/kg body weight, IV in a lateral tail vein, once each four days for 2 weeks. Control mice received an equivalent volume of the CPT-11 vehicle.
# [7] = test system: A549 human lung cancer xenografts; assay: Growth rate of A549 xenografts in nude mice (Example 3); assay type: in vivo
# Description: A549 human lung cancer cells (American Type Culture Collection, Rockville, Md.) were cultured for injection in nude mice. The culture medium was an enriched L15:SMEM base media supplemented with other factors as described previously.
# Twenty five male nude mice were allowed to acclimate for one week then were inoculated with tumor cells. The mice were housed under aseptic conditions (positive air pressure in a designated nude mouse room, cages, bedding, water and food were sterilized, cages had microisolator tops) in a temperature (24° C.) and light controlled (12 h light per day) room. All mouse handling was carried out under a laminar flow hood. Our Institutional Animal Care and Use Committee approved all animal use and handling before commencing the experiment. The animal care facilities are accredited by the American Association for the Accreditation of Laboratory Animal Care. Experimental Design-Cultured A549 cells were harvested, rinsed then suspended in serum-free L15:SMEM culture medium. Cells in suspension were counted using a hemocytometer and the cell count was adjusted to […]. The suspension was kept well mixed during the time of injection. […]
# Tumor lengths and widths and body weights were measured three times weekly. […] Tumor sizes were calculated using the formula for the volume of a prolate spheroid, […]
# [8] = patients or other mammals treated with CPT-11
molecule,measurement,setting,value
"CCc1c2c(nc3ccc(OC(=O)N4CCC(N5CCCCC5)CC4)cc13)-c1cc3c(c(=O)n1C2)COC(=O)[C@]3(O)CC [CPT-11, irinotecan hydrochloride]",mean fecal water content (% of water in the feces),[1],higher
same,number of apoptotic cells in 10 duodenum crypts,duodenum crypts,significantly increased
same,hematocrit,[2],significantly decreased
same,red blood cell count,[2],significantly decreased
same,white blood cell count,[2],significantly decreased
same,micronuclei (MN) in the peripheral blood,[3],significantly higher
same,polychromataphilic erythrocytes (PCE) in the peripheral blood,[3],significantly higher
same,liver weight as percent of body weight,[4],significantly larger
same,patients with anemia,[5]; [8],67%
same,patients with leukopenia,[5]; [8],91%
same,patients reporting asthenia (tiredness or weakness),[5]; side effect of CPT-11 treatment,~90%
same,coat quality,Coat quality (Example 1),scruffy
same,weight gained during the time of CPT-11 treatment,[6],not significantly different
"COc1cccc2c1C(=O)c1c(O)c3c(c(O)c1C2=O)C[C@@](O)(C(=O)CO)C[C@@H]3O[C@H]1C[C@H](N)[C@H](O)[C@H](C)O1 [DOX, doxorubicin]",growth of A549 tumors,"[7]; mice consuming corn oil, treated with DOX",halted the growth
ferric citrate [iron],effect of supplemental iron on A549 tumor growth,"[7]; mice fed corn oil, supplemental iron and DOX",counteracted the growth inhibitory effect
